≈ marks a conversion by molar mass, not a printed value. Where two headings read alike, the source gives them in different places.

The values that follow come from patent US8912359B2, “Bisbenzamidines for the treatment of pneumonia” (University of Cincinnati, priority 2003, dated 2014).

One series concerns Pneumocystis. As to the kind of experiment: Pneumocystis ATP detection assay. It counts as cell-based, P. carinii. To be noted: for Anti-Pneumocystis Activity: semi-qualitative scale from highly active to no activity, based on IC50; for IC50: concentration reducing ATP content of Pneumocystis populations by 50% vs untreated controls, 48 hours exposure (Table 1 title). From the text:
An ATP assay system (Cushion, Chen et al., 1997; Chen & Cushion, 1994; Collins & Cushion, 2001) was used to evaluate bisbenzamidine analogues as potential therapeutic targets for treatment of pneumonia, particularly that caused by species in the genus Pneumocystis. […]. Development of these compounds could provide new and novel treatment choices for Pneumocystis pneumonia.
A series of novel bisbenzamidines linked by either a rigid (for instance, a phenylene diamide) or a flexible (for instance, a propyl diamide) core are described. Such compounds may be used for the treatment of infections, such as pneumonia and for instance, pneumonia caused by Pneumocystis.
The structure-activity relationships for the piperazine-linked bisbenzamidines and the toxicities of each compound in three different mammalian cell lines are shown in the following tables. Compounds are ranked in order of the lowest concentration necessary to reduce the ATP content of Pneumocystis populations by 50% (i.e., the IC50) compared to untreated control populations. Note that the IC50 values are expressed on a microgram per milliliter and micromolar basis. […];

In the next series the test system is Calf thymus DNA. Briefly: DNA Binding ΔTm, calf thymus.
Another series deals with Poly (dA-dT). As to the kind of experiment: DNA Binding ΔTm, Poly (dA-dT).
The test system of series [1] is A549 lung epithelial cells.
Source text: (§1) Two transformed cell lines derived from two different organ systems and a primary cell line were chosen for evaluation of the relative toxicity of each compound. […] The Hep-G2 cell line is an epithelial cell line derived from a human hepatocellular carcinoma, and WI-38 is a human diploid cell line derived from normal embryonic (3 months of gestation) lung tissue.
A further series concerns WI-38. As to the kind of experiment: toxicity to WI-38 cell line (ATP system).

Source text for WI-38: as §1

Take `CCCCCCCCCNC(=N)c1ccc(N2CCN(c3ccc(C(=N)NCCCCCCCCC)cc3)CC2)cc1` [compound 14, 4,4′-(1,4-piperazinediyl)bis(N-nonylbenzenecarboximidamide)]: in the series with Pneumocystis, the “Anti-Pneumocystis Activity” value was “Marked”. The “DNA Binding ΔTm Calf thymus” value in the series with Calf thymus DNA was found to be 1.3 °C. In the series with Poly (dA-dT), the “DNA Binding ΔTm Poly (dA-dT)” value was 2.7 °C.

On to `CCCCCCNC(=N)c1ccc(N2CCN(c3ccc(C(=N)NCCCCCC)cc3)CC2)cc1` [compound 3, 4,4′-(1,4-piperazinediyl)bis(N-hexylbenzenecarboximidamide)], for which, in the series with Pneumocystis, the “Anti-Pneumocystis Activity” value is on record as “Highly Active”. Moreover, the “DNA Binding ΔTm Calf thymus” value in the series on Calf thymus DNA came to 10.7 °C. The “DNA Binding ΔTm Poly (dA-dT)” value in the series on Poly (dA-dT) worked out at 10.1 °C.

With `CCCCCCCCCCNC(=N)c1ccc(N2CCN(c3ccc(C(=N)NCCCCCCCCCC)cc3)CC2)cc1` [compound 18, 4,4′-(1,4-piperazinediyl)bis(N-decylbenzenecarboximidamide)], the “Anti-Pneumocystis Activity” value with Pneumocystis was “Marked”. The “DNA Binding ΔTm Calf thymus” value in the series with Calf thymus DNA was 1.3 °C.

Take `CCCCCCCCNC(=N)c1ccc(N2CCN(c3ccc(C(=N)NCCCCCCCC)cc3)CC2)cc1` [compound 11, 4,4′-(1,4-piperazinediyl)bis(N-octylbenzenecarboximidamide)]: the “Anti-Pneumocystis Activity” value in the series on Pneumocystis was “Marked”. Besides, the “DNA Binding ΔTm Calf thymus” value in the series on Calf thymus DNA turned out to be 4.2 °C.

As to `N=C(N)c1ccc(OCCCCCOc2ccc(C(=N)N)cc2)cc1` [Pentamidine, reference compound], in the series on Pneumocystis, 0.3 µg/mL (≈ 0.881 µM) corresponded to half-maximal inhibition (IC50) and the “Anti-Pneumocystis Activity” value is “marked”. Moreover, the “DNA Binding ΔTm Calf thymus” value with Calf thymus DNA came out at 11.1 °C. Besides, the “DNA Binding ΔTm Poly (dA-dT)” value in the series on Poly (dA-dT) was found to be 20.6 °C.

Consider `CCCCCNC(=N)c1ccc(N2CCN(c3ccc(C(=N)NCCCCC)cc3)CC2)cc1` [compound 2, 4,4′-(1,4-piperazinediyl)bis(N-pentylbenzenecarboximidamide)], for which the “Anti-Pneumocystis Activity” value in the series on Pneumocystis is recorded as “Highly Active”. Moreover, in the series on Calf thymus DNA, the “DNA Binding ΔTm Calf thymus” value came to 16.9 °C. Further, in the series with Poly (dA-dT), the “DNA Binding ΔTm Poly (dA-dT)” value came to 22.5 °C.

Regarding `CCCCCCCCCCCCNC(=N)c1ccc(N2CCN(c3ccc(C(=N)NCCCCCCCCCCCC)cc3)CC2)cc1` [compound 15, 4,4′-(1,4-piperazinediyl)bis(N-dodecylbenzenecarboximidamide)], in the series with Pneumocystis, the “Anti-Pneumocystis Activity” value is listed as “Marked”. Further, in the series on Calf thymus DNA, the “DNA Binding ΔTm Calf thymus” value was determined as 0.6 °C. In addition, the “DNA Binding ΔTm Poly (dA-dT)” value in the series on Poly (dA-dT) was 0.0 °C. Besides, in series [1] (human), the “toxicity in A549 line” value is “not the A549 line”.

As for `CCNC(=N)c1ccc(N2CCN(c3ccc(C(=N)NCC)cc3)CC2)cc1` [compound 16, 4,4′-(1,4-piperazinediyl)bis(N-ethylbenzenecarboximidamide)], in the series on Pneumocystis, the IC50 (as a rule, the concentration at which inhibition is half-maximal) was determined as 0.542 µg/mL (≈ 1.43 µM) and the “Anti-Pneumocystis Activity” value is on record as “marked”. Besides, the “Anti-Pneumocystis Activity” value in the series on Pneumocystis (listed as —C2H5) is recorded as “Marked”. In addition, the “DNA Binding ΔTm Calf thymus” value with Calf thymus DNA turned out to be 15.3 °C. Besides, in the series on Poly (dA-dT), the “DNA Binding ΔTm Poly (dA-dT)” value amounted to 18.6 °C.

On to `CCCCCCCNC(=N)c1ccc(N2CCN(c3ccc(C(=N)NCCCCCCC)cc3)CC2)cc1` [compound 5, 4,4′-(1,4-piperazinediyl)bis(N-heptylbenzenecarboximidamide)], for which the “Anti-Pneumocystis Activity” value in the series on Pneumocystis is recorded as “Very Marked”. Further, the “DNA Binding ΔTm Calf thymus” value in the series on Calf thymus DNA was determined as 8.7 °C. The “DNA Binding ΔTm Poly (dA-dT)” value with Poly (dA-dT) worked out at 8.5 °C. For the same compound, in series [1], the “toxicity in A549 line” value is listed as “without toxicity”. The “toxicity in WI-38 line” value in the series on WI-38 is “without toxicity”.
